Measurements published in patent US20090305225A1, “Inhibition of Creatine Uptake to Promote Weight Loss” (priority 2005, published 2009).

Legend:
Fos (c-fos protein) = assay: Fos immunohistochemistry of hypothalamic sections 4 hours after icv injection; assay type: in vivo, rat; details: 4 hours after icv injection, percent of area stained
Protocol: In experiments involving immunohistochemistry, animals were injected icv with beta-GPA or with vehicle. Four hours after injection, animals were anesthetized with halothane and perfused through the left ventricle of the heart, initially with oxygenated Krebs buffer and then with ˜350 ml of 4% paraformaldehyde in 0.1M NaCl, pH 7.4 phosphate buffered saline (PBS). Brains were extracted from the skull, hypothalamic blocks dissected (by coronal cuts anterior and posterior to hypothalamic landmarks) and post-fixed in 4% paraformaldehyde solution at 4 degrees C. overnight. The following day, the blocks were transferred to 30% sucrose and incubated overnight at 4 degrees C. After freezing in Optimum Cutting Temperature (OCT) compound (Sakura, Japan), blocks were sectioned coronally at 40 um on a cryostat and sections individually floated in multi-well dishes filled with PBS. Sections were treated for 30 minutes with 0.4% Triton detergent in potassium PBS to aid in antibody penetration. Primary antibodies were added, the plates shaken gently for 1 hour at room temperature, then incubated at 4 degrees C. for 72 hours. Sections were then brought to room temperature while shaking and the primary antibody solution was removed by washing 3 times with PBS buffer. After removal of the last wash, the secondary antibody solution was added and the plates incubated for 2 hours at room temperature in the dark. Removal of the second antibody was achieved by washing three times with PBS buffer prior to mounting on subbed slides. They were allowed to dry, rewetted with PBS buffer and cover-slipped with Citifluor (Ted Pella, Reading, Calif.).
Fos studies were performed using indirect fluorescence visualization. The method utilized rabbit c-Fos-AB5 (1:2,000; Oncogene Research Products, Cambridge, Mass.) with goat anti-rabbit Cy3 (1:500; Jackson Immuno Research Laboratories, West Grove, Pa.) as the secondary antibody. […] Staining observed in experimental tissue was compared to that observed from experiment-matched negative controls. […] Immunoreactive Fos (Fos IR) was quantified by capturing images at 10× using MagnaFire 2.0 Software. These images were imported into the Metamorph 6.1 Software package and density of staining measured using Hue Saturation Intensity. Regions outlining nuclei were hand drawn with an electric pen and the total areas and stained areas measured to yield percentages of total areas with specific Fos-IR. The values for left and right dorsomedial nuclei in each rat were averaged, and the averages used to calculate means. In the case of the III ventricle, the entire image was used for quantification prior to calculating the percentage of the area with Fos-IR.

[1] = system: creatine transporter mRNA; assay: In situ hybridization of creatine transporter mRNA in rat brain; assay type: in vivo; details: 48 hours after icv 0.4 um/kg; arcuate, dorsomedial, ventromedial, third ventricle, paraventricular thalamic, habenular areas; FIG. 6
Description: At least 3 rats per group were used for each individual probe. Brains were dissected as described above and were cut vertically to remove the anterior portion at the optic chiasm and the posterior portion at the interpeduncular fossa so that the remaining blocks included the whole hypothalamus with a small additional margin of adjacent tissue. The blocks were immediately frozen on foil on dry ice, then stored at −80 degrees C. Blocks were sectioned in a cryostat (Micron HM500O) at −20 degrees C. and at a thickness of 13 microns. The slides were fixed in 4% paraformaldehyde for 5 minutes and acetylated in 1.3% triethanolamine and 0.5% acetic anhydride, pH 8.0 for 5 minutes. […] After air drying, the slides were ready to use.
For preparation of radiolabeled riboprobes, the DNA fragments containing the creatine transporter insert and a T7 or SP6 phage promoter sequence in each side were produced from cloning vectors (pCRII-TOPO, Invitrogene; PCR-TRAP, GenHunter) either by restriction endonuclease digestion or by PCR amplification. […] The cpm value was determined by counting in a liquid scintillation spectrometer. […]
For dipping and developing in situ slides, Kodak NTB-2 emulsion was diluted (1:1) using ddH2O and warmed to 40 degrees C. in a dark room. […] Slides were observed under dark-field microscopy (Olympus, Tokyo, Japan) and silver grains in regions of interest were assessed. […]

C=Cc1c(C)c2cc3[nH]c(cc4nc(cc5nc(cc1[nH]2)C(C)=C5CCC(=O)[O-])C(CCC(=O)[O-])=C4C)c(C)c3C=C.[Co+2] [CoPP, Cobaltic protoporphyrin IX]
Fos IR in the dorsomedial nucleus (Fos (c-fos protein)): 6.86 ± 5.85%
Fos IR in the paraventricular nucleus (Fos (c-fos protein)): 4.44 ± 2.22%
Fos IR in the midsection of the ventral III ventricle (Fos (c-fos protein); p<0.025): 48.3 ± 11.18%
CrT mRNA in situ hybridization compared to control [1]: increased
